We go through one molecule from article PMC11476342 (Cancers, 2024).

The test system of one experiment is caspase 3/7. Put plainly: Activation of caspase 3/7 (CellEvent, high content screening). The experiment is classed as cell-based, human. Particulars: single treatment, all four cell lines (J82, J82 cisR, T24, T24 LTT). How it is done: Activation of caspase 3/7 was examined using the CellEvent Caspase-3/7 green detection reagent (Thermo Scientific, Wesel, Germany) according to the manufacturer’s instructions. The cells were seeded in 96-well-plates (Corning, Kaiserslautern, Germany) and treated with the indicated compounds for 48 h (J82 1600 c/w; J82 cisR 800 c/w; T24 1200 c/w; T24 LTT 3000 c/w). […] The supernatant was aspirated and a solution of CellEvent Caspase 3/7 green detection reagent (PBS, 1% heat inactivated fetal calf serum) was added to the cells for a final concentration of 2 µM. Hoechst 33342 (10 mg/mL in water, Sigma-Aldrich, Steinheim, Germany) was used for nuclei staining. The cells were incubated for 30 min at 37 °C and 5% CO2 before imaging by using the Thermo Fischer ArrayScan XTI high content screening (HCS) system with a 10 × magnification (Thermo Scientific, Wesel, Germany).

The next experiment deals with BRDs. On the set-up: method as in PMID 34582215. Particulars: cited from earlier work.
The next experiment has as its system T24 LTT. Put plainly: MTT cell viability assay. Type of experiment: cell-based, human. The procedure: (§1) The cell viability for determination of IC50 values and synergism studies was analyzed by MTT assay as previously described. […] For preincubation experiments, 1600 c/w (cells per well) for J82 and 1200 c/w for J82 cisR were used. After the incubation time, 25 µL MTT (3-(4,5-dimethylthiazol-2-yl)-2,5-diphenyltetrazolium bromide, Serva, Heidelberg, Germany) solution (5 mg/mL in phosphate-buffered saline) was added. The formazan was dissolved in 75 µL DMSO, and the absorption was measured at 540 nm and 690 nm with a microplate reader (ThermoFisher Multiskan, Thermo Scientific, Wesel, Germany).
In general terms: Formazan colour is commonly taken as a measure of viable cells.

Another experiment deals with J82 cisR. In words: MTT cell viability assay. Type of experiment: cell-based, human. The procedure:
as §1

A further experiment concerns T24. Put plainly: MTT cell viability assay. The experiment is classed as cell-based, human. The procedure:
as §1

The subject of another experiment is J82. Put plainly: MTT cell viability assay. Type of experiment: cell-based, human. How it is done:
as §1

A further experiment addresses T1, HDAC 4 (Homo sapiens, UniProt P56524).
T1 construct: purchased Reaction Biology Corp (Malvern, PA, USA) KDA-21-279
Put plainly: Enzyme HDAC inhibition assay. The experiment is classed as biochemical. Particulars: recombinant enzyme, Boc-Lys-(Tfa)-AMC; read-out: HDAC4 IC50 ± SD. The source says:
(§2) The human recombinant enzymes were ordered from Reaction Biology Corp (Malvern, PA, USA).

Another experiment has as its target T2, HDAC 8 (Homo sapiens, UniProt Q9BY41).
T2 construct: purchased Reaction Biology Corp (Malvern, PA, USA) KDA-21-481
T2 sequence (Q9BY41 1-377): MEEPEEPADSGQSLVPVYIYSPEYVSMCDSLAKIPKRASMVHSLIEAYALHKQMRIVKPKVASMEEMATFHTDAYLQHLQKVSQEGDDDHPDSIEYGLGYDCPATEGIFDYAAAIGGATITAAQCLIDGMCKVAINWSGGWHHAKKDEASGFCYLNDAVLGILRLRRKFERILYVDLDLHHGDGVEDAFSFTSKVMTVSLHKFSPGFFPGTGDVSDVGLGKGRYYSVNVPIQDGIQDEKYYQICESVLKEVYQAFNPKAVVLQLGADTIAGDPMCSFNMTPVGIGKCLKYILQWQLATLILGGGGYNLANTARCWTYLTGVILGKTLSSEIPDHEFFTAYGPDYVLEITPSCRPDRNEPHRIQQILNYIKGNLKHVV
Put plainly: Enzyme HDAC inhibition assay. The experiment is classed as biochemical. The settings on record: recombinant enzyme, Boc-Lys-(Tfa)-AMC; read-out: HDAC8 IC50 ± SD.
From the text: as §2

A further experiment has as its system HDAC 1-3 and 6. Details: method as in PMID 34582215. Particulars: cited from earlier work.
[1] abbreviates: 7.5 µM of 20, without cisplatin (Figure 10, S17).

SMILES strings stand for the structures.

In general, IC50 refers to the concentration that gives 50% inhibition.

T1 sequence (P56524 whole entry): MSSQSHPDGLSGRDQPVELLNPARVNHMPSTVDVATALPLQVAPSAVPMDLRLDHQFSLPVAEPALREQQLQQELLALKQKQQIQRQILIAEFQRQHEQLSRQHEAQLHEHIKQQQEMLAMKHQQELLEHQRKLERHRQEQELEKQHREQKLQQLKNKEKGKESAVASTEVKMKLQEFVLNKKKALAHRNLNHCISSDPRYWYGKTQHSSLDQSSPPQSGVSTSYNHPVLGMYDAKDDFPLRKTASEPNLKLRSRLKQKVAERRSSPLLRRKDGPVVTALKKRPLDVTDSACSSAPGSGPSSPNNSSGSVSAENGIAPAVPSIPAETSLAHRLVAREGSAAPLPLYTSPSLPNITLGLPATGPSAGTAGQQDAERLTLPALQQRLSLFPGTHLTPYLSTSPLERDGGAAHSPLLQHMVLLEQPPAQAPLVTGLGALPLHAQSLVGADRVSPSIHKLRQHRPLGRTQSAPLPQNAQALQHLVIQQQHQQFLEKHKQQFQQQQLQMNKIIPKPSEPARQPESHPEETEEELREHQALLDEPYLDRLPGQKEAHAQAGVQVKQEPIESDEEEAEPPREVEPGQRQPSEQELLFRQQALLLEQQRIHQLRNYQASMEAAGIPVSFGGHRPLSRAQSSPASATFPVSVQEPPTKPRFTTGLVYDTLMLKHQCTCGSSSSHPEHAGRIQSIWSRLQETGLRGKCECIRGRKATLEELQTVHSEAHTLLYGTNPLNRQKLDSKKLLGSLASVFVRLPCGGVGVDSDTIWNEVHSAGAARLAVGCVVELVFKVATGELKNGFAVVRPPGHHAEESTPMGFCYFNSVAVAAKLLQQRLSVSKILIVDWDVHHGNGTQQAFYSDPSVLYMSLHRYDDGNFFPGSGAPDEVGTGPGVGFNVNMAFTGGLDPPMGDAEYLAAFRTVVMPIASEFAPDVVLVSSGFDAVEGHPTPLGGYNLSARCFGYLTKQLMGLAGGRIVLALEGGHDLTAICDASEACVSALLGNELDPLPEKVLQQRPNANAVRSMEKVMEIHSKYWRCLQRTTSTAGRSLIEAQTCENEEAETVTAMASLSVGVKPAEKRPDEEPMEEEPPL

Regarding `CCc1c(C(=O)Nc2cc(/C=C/C(=O)NO)ccc2OC)[nH]c(C)c1C(C)=O` [compound 20], in the experiment on caspase 3/7, the “caspase 3/7 activation” value is “only weakly activated”. For the same molecule, the “inhibitory activity to BRDs” value in the experiment on BRDs is on record as “single-digit micromolar range”. Besides, the “decrease in cell viability” value in the experiment with T24 LTT (setting [1]), in the experiment with J82 cisR (setting [1]), in the experiment on T24 (setting [1]) and with J82 (setting [1]) was 60–70% each time. The IC50 was determined as 4.66 ± 0.41 µM in the experiment with T24 LTT (Homo sapiens, MTT, 72 h, compound alone, read-out: IC50 ± SD); 7 ± 0.49 µM with J82 cisR (Homo sapiens, 72 h, MTT, 72 h, compound alone, read-out: IC50 ± SD); 6.95 ± 0.54 µM with T24 (Homo sapiens, T-24, MTT, 72 h, compound alone, read-out: IC50 ± SD); 7.17 ± 0.57 µM in the experiment with J82 (Homo sapiens, J82, 72 h, MTT, 72 h, compound alone, read-out: IC50 ± SD); 207 µM on HDAC 4; 6.03 µM at HDAC 8. For the same molecule, in the experiment with HDAC 1-3 and 6, the “inhibitory activity against HDAC 1-3 and 6” value is reported as “sub-micromolar”.
